pIC50: −log10 of the molar value. Like-named read-outs stand apart in the source and are kept apart here.
Assays:
[1] = biological target: KRAS-WT (Homo sapiens, UniProt P01116); assay: SOS-catalyzed nucleotide exchange assay (Procedure A, TR-FRET), KRAS-WT; assay type: biochemical
In short: (§1)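 Compounds (10-point, 3-fold) were preincubated 60 min at room temperature with a biotinylated RAS/Bodipy-GDP/Tb-streptavidin TR-FRET complex. Exchange was started with human SOS plus 3 mM GTP. RAS/SOS: G12C 3/40 nM, WT 1/40 nM, NRAS 1.25/40 nM (60 min); G12V 1.25/160 nM (90 min). The 520/495 ratio was fit four-parameter.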

[2] = test system: MKN-1 cells; assay: Cellular phospho-ERK assay, MKN-1 cells (amplified wild-type KRAS); assay type: cell-based; settings: Homo sapiens, read-out: MKN1 pERK IC50
In short: (§2)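 Inhibition of ERK phosphorylation was determined after treating attached cells with compound for 2 h; top concentration 30 μM, serial 1:3 dilution. Each well's p-ERK:total ERK ratio, read by SureFire Ultra, was fitted with a four-parameter model for IC50.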

[3] = biological target: KRAS-G12D (Homo sapiens, UniProt P01116, G12D); assay: SOS-catalyzed nucleotide exchange assay (Procedure A, TR-FRET), KRAS-G12D; assay type: biochemical
Chain of KRAS-G12D (P01116 with tags, fused parts or gaps isoform P01116-2 G12D): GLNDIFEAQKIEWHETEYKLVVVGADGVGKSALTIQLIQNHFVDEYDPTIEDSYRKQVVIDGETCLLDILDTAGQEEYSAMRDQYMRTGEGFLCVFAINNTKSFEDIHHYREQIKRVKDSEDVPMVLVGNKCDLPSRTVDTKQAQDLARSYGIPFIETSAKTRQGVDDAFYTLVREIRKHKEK
In short: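 Signal ratio (520/495 nm, excitation 340 nm) reports Bodipy-GDP retention on biotinylated RAS after SOS-catalyzed exchange with 3 mM GTP. SOS was 40 nM, except 160 nM for G12V. Room-temperature exchange lasted 60 min (90 min for G12V), following a 60 min compound preincubation.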

[4] = test system: AsPC-1 cells; assay: Cellular phospho-ERK assay, AsPC-1 cells (homozygous KRAS-G12D); assay type: cell-based; settings: Homo sapiens, read-out: AsPC1 pERK IC50
In short: as §2

[5] = biological target: KRAS-G12V (Homo sapiens, UniProt P01116, G12V); assay: SOS-catalyzed nucleotide exchange assay (Procedure A, TR-FRET), KRAS-G12V; assay type: biochemical
Chain of KRAS-G12V (P01116 with tags, fused parts or gaps isoform P01116-2 G12V): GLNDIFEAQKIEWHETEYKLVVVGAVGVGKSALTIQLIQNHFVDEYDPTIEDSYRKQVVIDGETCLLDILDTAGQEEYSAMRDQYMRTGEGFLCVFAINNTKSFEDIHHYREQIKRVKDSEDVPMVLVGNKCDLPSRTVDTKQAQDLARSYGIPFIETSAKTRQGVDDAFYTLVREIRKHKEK
In short: as §1

[6] = test system: SW620 cells; assay: Cellular phospho-ERK assay, SW620 cells (homozygous KRAS-G12V); assay type: cell-based; settings: Homo sapiens, read-out: SW620 pERK IC50
In short: as §2

[7] = nucleotide exchange, read-out: KRAS WT GNE IC50
[8] = nucleotide exchange, read-out: KRAS G12D GNE IC50
[9] = ASPC1, 2 h, 2 hours compound incubation
[10] = nucleotide exchange, read-out: KRAS G12V GNE IC50
[11] = SW-620, 2 hours compound incubation
[12] = amplified wild-type KRAS, 2 hours

Chain of KRAS-WT (P01116 with tags, fused parts or gaps isoform P01116-2): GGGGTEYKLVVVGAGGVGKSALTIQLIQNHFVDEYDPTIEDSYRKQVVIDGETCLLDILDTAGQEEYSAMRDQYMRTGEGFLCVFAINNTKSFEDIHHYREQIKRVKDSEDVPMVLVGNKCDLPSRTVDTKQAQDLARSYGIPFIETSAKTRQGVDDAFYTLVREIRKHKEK

pIC50 [1, 7]	pIC50 ([2]; 2 hours compound incubation)	pIC50 [3, 8]	pIC50 [4, 9]	pIC50 [5, 10]	pIC50 [6, 11]	Compound	pIC50 [2, 12]	pIC50 ([4]; ASPC1, 2 h, KRAS-G12D, 2 hours)	pIC50 ([6]; SW-620, KRAS-G12V, 2 hours)	pIC50 ([1]; KRAS WT GNE IC50, nucleotide exchange)	pIC50 ([3]; KRAS G12D GNE IC50, nucleotide exchange)	pIC50 ([4]; ASPC1, KRAS-G12D, 2 hours)	pIC50 ([5]; KRAS G12V GNE IC50, nucleotide exchange)
6.36	6.29	6.70	6.41	6.73	6.34	Cc1cc2[nH]ncc2c(-c2nccc3c2sc2nc(OC[C@@]45CCCN4C[C@H](F)C5)nc(N4CCOCC5(CCCO5)C4)c23)c1C(F)(F)F (stereo partly drawn) [Ex-197, 10-(2-(((2R,7aS)-2-fluoro-tetrahydro-1H-pyrrolizin-7a(5H)-yl)methoxy)-8-(6-methyl-5-(trifluorometh-yl)-1H-indazol-4-yl)pyrido [4′,3′:4,5]thieno[2,3-d]pyrimidin-4-yl)-1,7-dioxa-10-azaspiro[4.6]undecane]	–	–	–	–	–	–	–
6.88	6.92	7.44	6.85	7.47	7.13	Cc1cc2[nH]ncc2c(-c2nccc3c2sc2nc(OC[C@@]45CCCN4C[C@H](F)C5)nc(N4CCOC[C@]5(CCO5)C4)c23)c1C(F)(F)F [Ex-198, (4S)-9-(2-(((2R,7aS)-2-fluorotetrahydro-1H-pyr-rolizin-7a(5H)-yl)meth-oxy)-8-(6-methyl-5-(tri-fluoromethyl)-1H-indazol-4-yl)pyrido[4′,3′:4,5]thieno[2,3-d]pyrimidin-4-yl)-1,6-dioxa-9-azaspiro [3.6]decane]	–	–	–	–	–	–	–
–	–	–	–	–	–	C[C@@]1(O)COCCN(c2nc(OC[C@@]34CCCN3C[C@H](F)C4)nc3[se]c4c(-c5c(C6CC6)c(Cl)cc6[nH]ncc56)nccc4c23)C1 [Ex-289, (6S)-4-(8-(6-chloro-5-cyclopropyl-1H-indazol-4-yl)-2-(((2R,7aS)-2-fluorotetrahydro-1H-pyrrolizin-7a(5H)-yl)methoxy)pyri-do[4′,3′:4,5]seleno-pheno[2,3-d]pyrimidin-4-yl)-6-methyl-1,4-oxazepan-6-ol]	7.09	–	7.19	7.65	8.16	6.99	7.57
6.30	6.77	7.20	6.87	6.61	6.97	CC1(O)COCCN(c2nc(OCC3(CN4CC5C(F)C5C4)CC3(F)F)nc3sc4c(-c5c(C6CC6)c(Cl)cc6[nH]ncc56)nccc4c23)C1 [Ex-214, (6S)-4-(8-(6-chloro-5-cyclopropyl-1H-indazol-4-yl)-2-(((R)-2,2-difluoro-1-(((1R,5S,6R)-6-fluoro-3-azabicyclo [3.1.0]hexan-3-yl)-methyl)cycloprop-yl)methoxy)pyrido [4′,3′:4,5]thieno[2,3-d]pyrimidin-4-yl)-6-methyl-1,4-oxaze-pan-6-ol]	–	–	–	–	–	–	–
7.28	6.74	7.79	6.42	7.42	6.88	CO[C@@H]1CN2CCC[C@@]2(COc2nc(N3CCOC[C@@](C)(O)C3)c3c(n2)sc2c(-c4c(C5CC5)c(Cl)cc5[nH]ncc45)nccc23)C1 [Ex-228, (6S)-4-(8-(6-chloro-5-cyclopropyl-1H-indazol-4-yl)-2-(((25,7aS)-2-meth-oxytetrahydro-1H-pyrrolizin-7a(5H)-yl)methoxy)pyrido [4′,3′:4,5]thieno[2,3-d]pyrimidin-4-yl)-6-methyl-1,4-oxaze-pan-6-ol]	–	–	–	–	–	–	–
6.54	6.51	7.06	6.43	7.03	6.72	Cc1cc2[nH]ncc2c(-c2nccc3c2sc2nc(OC[C@@]45CCCN4C[C@H](F)C5)nc(N4CCOCC5(CC(C)O5)C4)c23)c1C(F)(F)F (stereo partly drawn) [Ex-199, 9-(2-(((2R,7aS)-2-fluoro-tetrahydro-1H-pyrrolizin-7a(5/7)-yl)methoxy)-8-(6-methyl-5-(trifluorometh-yl)-1H-indazol-4-yl)pyrido [4′,3′:4,5]thieno[2,3-d]pyr-imidin-4-yl)-2-methyl-1,6-dioxa-9-azaspiro[3.6] decane]	–	–	–	–	–	–	–
7.72	6.95	8.28	7.12	7.78	7.34	CC(C)(C)c1c(Cl)cc2[nH]ncc2c1-c1nccc2c1sc1nc(OC[C@@]34CCCN3C[C@H](F)C4)nc(N3CCOC[C@@](C)(O)C3)c12 [Ex-156, (6S)-4-(8-(5-(tert-butyl)-6-chloro-1H-indazol-4-yl)-2-(((2R,7aS)-2-fluorotetrahydro-1H-pyrrolizin-7a(5H)-yl)methoxy)pyrido[4′,3′:4,5]thieno[2,3-d]pyrimidin-4-yl)-6-methyl-1,4-oxazepan-6-ol]	–	–	–	–	–	–	–
8.09	7.47	8.73	7.26	7.94	7.53	C[C@@]1(O)COCCN(c2nc(OC[C@]3(CN4CCC4)CC3(F)F)nc3sc4c(-c5c(C6(F)CC6)c(Cl)cc6[nH]ncc56)nccc4c23)C1 [Ex-239, (6S)-4-(2-(((R)-1-(azetidin-1-ylmethyl)-2,2-difluorocyclopropyl)methoxy)-8-(6-chloro-5-(1-fluorocyclopropyl)-1H-indazol-4-yl)pyrido[4′,3:′4,5]thieno[2,3-d]pyrimidin-4-yl)-6-methyl-1,4-oxazepan-6-ol]	–	–	–	–	–	–	–

Compound	pIC50 [1, 7]	pIC50 ([2]; 2 hours compound incubation)	pIC50 [3, 8]	pIC50 [4, 9]	pIC50 [5, 10]	pIC50 [6, 11]	pIC50 [2, 12]	pIC50 ([4]; ASPC1, 2 h, KRAS-G12D, 2 hours)	pIC50 ([6]; SW-620, KRAS-G12V, 2 hours)	pIC50 ([1]; KRAS WT GNE IC50, nucleotide exchange)	pIC50 ([3]; KRAS G12D GNE IC50, nucleotide exchange)	pIC50 ([4]; ASPC1, KRAS-G12D, 2 hours)	pIC50 ([5]; KRAS G12V GNE IC50, nucleotide exchange)
C[C@@]1(O)COCCN(c2nc(OC[C@@]34CCCN3C[C@H](F)C4)nc3sc4c(-c5c(C6(F)CC6)c(C(F)(F)F)cc6[nH]ncc56)nncc4c23)C1 [Ex-283, (6S)-4-(8-(5-(1-fluorocyclopropyl)-6-(trifluoromethyl)-1H-indazol-4-yl)-2-(((2R,7aS)-2-fluorotetrahydro-1H-pyrrolizin-7a(5H)-yl)methoxy)pyrimido [5′,4′:4,5]thieno[2,3-d]pyridazin-4-yl)-6-methyl-1,4-oxazepan-6-ol]	7.84	–	8.28	–	7.81	–	7.11	6.61	7.38	–	–	–	–
Cc1c2nc(OC[C@@]34CCCN3C[C@H](F)C4)nc(N3CCOC[C@@](C)(O)C3)c2n2ccnc(-c3c(C4CC4)c(Cl)cc4[nH]ncc34)c12 (single isomer, unassigned) [Ex-302]	7.73	–	8.05	–	7.77	–	7.31	6.87	7.31	–	–	–	–
Cc1cc2[nH]ncc2c(-c2nccc3c2sc2nc(OC[C@@]45CCCN4C[C@H](F)C5)nc(N4CCOC[C@@](C)(O)C4)c23)c1C1(C)CC1 [Ex-62, (6S)-4-(2-(((2R,7aS)-2-fluorotetrahydro-1H-pyrrolizin-7a(5H)-yl)methoxy)-8-(6-methyl-5-(1-methylcyclopropyl)-1H-indazol-4-yl)pyrido[4′,3′:4,5]thieno [2,3-d]pyrimidin-4-yl)-6-methyl-1,4-oxazepan-6-ol]	7.27	–	7.53	–	7.66	–	6.60	6.76	6.88	–	–	–	–
C[C@@]1(O)COCCN(c2nc(OC[C@@]34CCCN3C[C@H](F)C4)nc3sc4c(-c5c(C6=CCC6)c(Cl)cc6[nH]ncc56)nccc4c23)C1 [Ex-70, (6S)-4-(8-(6-chloro-5-(cyclobut-1-en-1-yl)-1H-indazol-4-yl)-2-(((2R,7aS)-2-fluorotetrahydro-1H-pyrrolizin-7a(5H)-yl)methoxy)pyrido[4′,3′:4,5]thi-eno[2,3-d]pyrimidin-4-yl)-6-methyl-1,4-oxazepan-6-ol]	7.47	–	8.19	–	7.71	–	7.21	7.02	7.53	–	–	–	–

— patent US20260176289A1, “SMALL MOLECULE INHIBITORS OF KRAS PROTEINS” (Merck Sharp & Dohme LLC, priority 2022, published 2026)
